According to patent publication US20240158392A1 (Janssen Biotech, Inc., priority 2021, published 2024):

The molecules below were run against SIK2 (Homo sapiens, UniProt Q9H0K1) (assay: SIK2 Enzymatic Assay High Version 2 (High ATP)). Conditions: not given.
Format: biochemical
How it was run: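 At room temperature, enzyme (6 nM, 2× final) was preincubated with compound for 30 min, then 6 mM ATP and 400 μM HDAC5tide (both 2× final) were added for 2 h. ADP formed was measured by ADP-Glo Max (2 h reagent, 1 h detection) using luminescence.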

Chain of SIK2 (Q9H0K1 whole entry, species assumed): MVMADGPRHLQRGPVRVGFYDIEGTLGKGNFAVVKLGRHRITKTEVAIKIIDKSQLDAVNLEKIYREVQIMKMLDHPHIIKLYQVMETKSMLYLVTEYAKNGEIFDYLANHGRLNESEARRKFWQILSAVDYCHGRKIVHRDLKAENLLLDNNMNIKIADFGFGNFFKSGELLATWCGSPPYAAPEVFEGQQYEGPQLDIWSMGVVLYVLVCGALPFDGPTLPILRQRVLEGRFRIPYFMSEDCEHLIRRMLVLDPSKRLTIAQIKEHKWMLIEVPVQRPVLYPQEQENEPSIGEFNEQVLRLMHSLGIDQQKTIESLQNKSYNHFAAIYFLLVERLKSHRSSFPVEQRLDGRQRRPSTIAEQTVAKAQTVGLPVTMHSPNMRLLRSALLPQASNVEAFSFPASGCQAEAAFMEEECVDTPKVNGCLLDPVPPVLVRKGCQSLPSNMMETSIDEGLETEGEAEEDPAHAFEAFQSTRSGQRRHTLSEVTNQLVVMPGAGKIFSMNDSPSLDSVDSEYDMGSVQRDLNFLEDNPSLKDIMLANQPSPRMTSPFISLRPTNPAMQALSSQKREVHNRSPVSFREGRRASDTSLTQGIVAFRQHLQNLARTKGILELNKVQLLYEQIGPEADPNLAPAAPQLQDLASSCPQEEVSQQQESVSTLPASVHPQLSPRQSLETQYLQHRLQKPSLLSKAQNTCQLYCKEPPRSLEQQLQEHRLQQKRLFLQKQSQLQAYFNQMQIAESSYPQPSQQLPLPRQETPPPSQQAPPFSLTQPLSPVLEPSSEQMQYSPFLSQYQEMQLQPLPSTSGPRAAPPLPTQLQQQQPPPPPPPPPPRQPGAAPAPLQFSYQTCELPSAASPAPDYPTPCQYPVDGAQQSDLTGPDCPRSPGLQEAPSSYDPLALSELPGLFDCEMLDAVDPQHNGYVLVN

Row | Molecule | IC50 [µM]
1 | Cc1cc(Nc2cc3cc(-c4cc(C)ncc4O[C@H]4C[C@H]5COC[C@@H](C4)N5)ccn3n2)ncn1 [Example 396, 5-[2-methyl-5-[[(1R,5S,7s)-3-oxa-9-azabicyclo[3.3.1]nonan-7-yl]oxy]-4-pyridyl]-N-(6-methylpyrimidin-4-yl)pyrazolo[1,5-a]pyridin-2-amine] | 0.0011
2 | Cc1cc(-c2ccn3nc(Nc4ccnnc4)cc3c2)c(O[C@H]2C[C@H]3COC[C@@H](C2)N3C)cn1 [Example 408, 5-[2-methyl-5-[[(1S,5R,7s)-9-methyl-3-oxa-9-azabicyclo[3.3.1]nonan-7-yl]oxy]-4-pyridyl]-N-pyridazin-4-yl-pyrazolo[1,5-a]pyridin-2-amine] | 0.001
3 | Cc1cc(-c2ccn3nc(Nc4cc(C)nc(C)n4)cc3c2)c(OC[C@@H]2CC[C@@H](O)CO2)cn1 (single isomer, unassigned) [Example 346, (3*R,6*S)-6-[[4-[2-[(2,6-dimethylpyrimidin-4-yl)amino]pyrazolo[1,5-a]pyridin-5-yl]-6-methyl-3-pyridyl]oxymethyl]tetrahydropyran-3-ol] | 0.0167
4 | CC[C@@H]1NC[C@@H]1Oc1cnc(C)cc1-c1ccn2nc(NC(=O)C3CC3)cc2c1 (relative stereo) [Example 453, (*S, *S)—N-[5-[5-(2-ethylazetidin-3-yl)oxy-2-methyl-4-pyridyl]pyrazolo[1,5-a]pyridin-2-yl]cyclopropanecarboxamide] | 0.0334
5 | Cc1cc(-c2ccn3nc(Nc4ccc(=O)n(C)n4)cc3c2)c(O[C@H]2C[C@H]3COC[C@@H](C2)N3)cn1 [Example 401, 2-methyl-6-[[5-[2-methyl-5-[[(1S,5R,7s)-3-oxa-9-azabicyclo[3.3.1]nonan-7-yl]oxy]-4-pyridyl]pyrazolo[1,5-a]pyridin-2-yl]amino]pyridazin-3-one] | 0.0161
6 | Cc1cc(-c2ccn3nc(Nc4cn(C)nc4F)cc3c2)c(O[C@H]2C[C@H]3COC[C@@H](C2)N3C)cn1 [Example 412, N-(3-fluoro-1-methyl-pyrazol-4-yl)-5-[2-methyl-5-[[(1S,5R,7s)-9-methyl-3-oxa-9-azabicyclo[3.3.1]nonan-7-yl]oxy]-4-pyridyl]pyrazolo[1,5-a]pyridin-2-amine] | 0.000883

Same assay, conditions: enzyme 6 nM, 6 mM ATP and 400 μM HDAC5tide (each 2× final concentration); 30 minutes pre-incubation, 2 hours; ADP-Glo Max luminescence; read-out: SIK2 high ATP IC50 (μM) (Test Example 2)

Row | IC50 [µM] | Molecule
7 | 0.00608 | Cc1cc(-c2ccn3nc(Nc4cc(C)c(=O)n(CC(C)C)n4)cc3c2)c(OCC(C)(C)O)cn1 [Example 282, 6-[[5-[5-(2-hydroxy-2-methyl-propoxy)-2-methyl-4-pyridyl]pyrazolo[1,5-a]pyridin-2-yl]amino]-2-isobutyl-4-methyl-pyridazin-3-one]
8 | 0.0324 | CO[C@]1(COc2cnc(C)cc2-c2ccn3nc(NC(=O)C4CC4)cc3c2)CCNC1 (single isomer, unassigned) [Example 214, (*R)—N-[5-[5-[(3-methoxypyrrolidin-3-yl)methoxy]-2-methyl-4-pyridyl]pyrazolo[1,5-a]pyridin-2-yl]cyclopropanecarboxamide]
9 | 0.108 | CNc1nc(C)cc(Nc2cc3cc(-c4cc(OC(F)F)ncc4OCC(C)(C)C#N)ccn3n2)n1 [Example 676, 3-[[6-(difluoromethoxy)-4-[2-[[6-methyl-2-(methylamino)pyrimidin-4-yl]amino]pyrazolo[1,5-a]pyridin-5-yl]-3-pyridyl]oxy]-2,2-dimethyl-propanenitrile]
10 | 0.01 | Cc1ccc(Nc2cc3cc(-c4cc(OC(F)F)ncc4OCC(C)(C)C#N)ccn3n2)nn1 [Example 711, 3-[[6-(difluoromethoxy)-4-[2-[(6-methylpyridazin-3-yl)amino]pyrazolo[1,5-a]pyridin-5-yl]-3-pyridyl]oxy]-2,2-dimethyl-propanenitrile]
11 | 0.0953 | Cc1cc(Nc2cc3cc(-c4cc(OCC(F)(F)F)ncc4O[C@H]4CC[C@H](O)CC4)ccn3n2)nc(C)n1 [Example 664, 4-[[4-[2-[(2,6-dimethylpyrimidin-4-yl)amino]pyrazolo[1,5-a]pyridin-5-yl]-6-(2,2,2-trifluoroethoxy)-3-pyridyl]oxy]cyclohexanol]
12 | 0.0306 | CC(C)(C#N)COc1cnc(OC(F)F)cc1-c1ccn2nc(Nc3ccnc(N)n3)cc2c1 [Example 705, 3-[[4-[2-[(2-aminopyrimidin-4-yl)amino]pyrazolo[1,5-a]pyridin-5-yl]-6-(difluoromethoxy)-3-pyridyl]oxy]-2,2-dimethyl-propanenitrile]
13 | 0.000864 | Cc1cc(-c2ccn3nc(Nc4cnccn4)cc3c2)c(OC[C@@H]2CN(C)CCO2)cn1 [Example 515, 5-[2-methyl-5-[[(2S)-4-methylmorpholin-2-yl]methoxy]-4-pyridyl]-N-pyrazin-2-yl-pyrazolo[1,5-a]pyridin-2-amine]
14 | 0.0255 | Cc1cc(-c2ccn3nc(NC(=O)C4CC4)cc3c2)c(OC[C@](C)(O)C(F)(F)F)cn1 (single isomer, unassigned) [Example 190, (*S)—N-(5-(2-methyl-5-(3,3,3-trifluoro-2-hydroxy-2-methylpropoxy)pyridin-4-yl)pyrazolo[1,5-a]pyridin-2-yl)cyclopropanecarboxamide]
15 | 0.0139 | Cc1cc(-c2ccn3nc(NC(=O)C4CC4)cc3c2)c(O[C@H]2CCNC2)cn1 [Example 277, N-[5-[2-methyl-5-[(3S)-pyrrolidin-3-yl]oxy-4-pyridyl]pyrazolo[1,5-a]pyridin-2-yl]cyclopropanecarboxamide]

Further lines, the molecule ahead of its results:

Row | Molecule | IC50 [µM]
16 | Cc1cc(-c2ccn3nc(NC(=O)C4CC4)cc3c2)c(OC[C@@]2(F)CCNC2)cn1 (single isomer, unassigned) [Example 447, (*R)—N-[5-[5-[(3-fluoropyrrolidin-3-yl)methoxy]-2-methyl-4-pyridyl]pyrazolo[1,5-a]pyridin-2-yl]cyclopropanecarboxamide] | 0.0246
17 | Cc1cc(-c2ccn3nc(Nc4cc(C)nc(C)n4)cc3c2)c(OC[C@H]2CC3(CCC3)CO2)cn1 (single isomer, unassigned) [Example 607, (*R)—N-(2,6-dimethylpyrimidin-4-yl)-5-[2-methyl-5-(7-oxaspiro[3.4]octan-6-ylmethoxy)-4-pyridyl]pyrazolo[1,5-a]pyridin-2-amine] | 0.1
18 | (*S)-4-[[6-(difluoromethoxy)-4-[2-[(2,6-dimethylpyrimidin-4-yl)amino]pyrazolo[1,5-a]pyridin-5-yl]-3-pyridyl]oxymethyl]-1,5,5-trimethyl-pyrrolidin-2-one [Example 734] | 0.00307
19 | Cc1cc(-c2ccn3nc(Nc4cnn(C)c4)cc3c2)c(OC[C@@H]2CNCCO2)cn1 [Example 128, 5-[2-methyl-5-[[(2S)-morpholin-2-yl]methoxy]-4-pyridyl]-N-(1-methylpyrazol-4-yl)pyrazolo[1,5-a]pyridin-2-amine] | 0.0249
20 | Cc1cc(-c2ccn3nc(Nc4cccnc4)cc3c2)c(OC[C@@H]2CNCCO2)cn1 [Example 131, 5-[2-methyl-5-[[(2S)-morpholin-2-yl]methoxy]-4-pyridyl]-N-(3-pyridyl)pyrazolo[1,5-a]pyridin-2-amine] | 0.0524
21 | Cc1cc(-c2ccn3nc(Nc4cc(C)nc(C)n4)cc3c2)c(OC[C@@]2(O)CCCOC2)cn1 (single isomer, unassigned) [Example 216, (*R)-3-[[4-[2-[(2,6-dimethylpyrimidin-4-yl)amino]pyrazolo[1,5-a]pyridin-5-yl]-6-methyl-3-pyridyl]oxymethyl]tetrahydropyran-3-ol] | 0.0311
